Source: patent US20190328857A1, “CALR AND JAK2 VACCINE COMPOSITIONS” (IO Biotech ApS, priority 2016, published 2019)

Key:
Type in all cases: cell-based, human
[1] = tested on: PBMC from healthy donors; assay: IFN-γ ELISPOT on PBMC from healthy donors; details: for healthy donors with a significant response in IFN-γ ELISPOT / healthy donors with a significant response in IFN-γ ELISPOT, percentage: of 21 (CALRLong1), 23 (CALRLong2), 9 (CALRLong4), 7 (CALRLong5) analyzed
Text: (§1) The ELISPOT assay is based on the detection of antigen induced release of cytokines—most often IFN-γ—by single T-cells upon triggering of its T-cell receptor. Reactivity of a single T-cell can be detected and quantified via binding of the respective cytokine on special nitrocellulose filter plates. When a T-cell recognizes the peptide epitope examined, the T-cell releases cytokines that are detected by a colorimetric reaction using an enzyme conjugated to a secondary cytokine specific antibody. The reaction product is visible as a spot. Ideally, each spot represents the cytokines secreted by a single activated cell. ELISPOTs were performed and analyzed as described previously (Munir et al., 2013). PBMCs were tested in different concentrations to ensure an optimal response. The distribution-free resampling method, described by Moodie et al., was used for statistical analyses and a p-value ≤0.05 was deemed a T-cell response (Moodie et al., 2010).
PBMC from healthy donors were analyzed by IFN-γ ELISPOTs as described in Example 1 for immune responses against the CARL-mutant epitopes CALRLong1 ([…]), CALRLong2 ([…]), CALRLong4 ([…]) and CALRLong5 ([…]). […]

[2] = tested on: CALRLong1-specific T-cells; assay: Intracellular cytokine staining of CALRLong1-specific T-cell culture stimulated with peptide; details: after three stimulations with autologous dendritic cells
Method: Fresh PBMCs were first enriched for CD14+ cells using MACS CD14 MicroBeads (Miltenyi Biotech GmbH, Bergisch Gladbach, Germany). This was considered day 0. The resulting monocyte-depleted cell culture was termed peripheral blood lymphocytes (PBL). The enriched cells were cultured using CellGro (CellGenix GmbH, Freiburg, Germany), and stimulated with GM-CSF (1000 U/ml) and IL-4 (250 U/ml) (both PeproTech, Rocky Hill, N.J., USA). The next day, to generate fast dendritic cells (fastDC), we treated half of the enriched cells with a maturation cocktail comprising IFN-γ (1000 U/ml) (PeproTech, Rocky Hill, N.J., USA), PolyI:C (20 μg/ml) (Sigma-Aldrich, St. Louis, Mo., USA) and CALRLong1 peptide. PBL were cultured overnight in X-VIVO medium (Lonza Group Ltd., Basel, Switzerland) and then stimulated with half of the fastDC. The other half of the fastDC were frozen for later use.
The other half of the enriched cells were cultured until day 7, at which time these cells were treated with the same maturation cocktail as above, to generate mature dendritic cells (mDC). The next day, these mDC were used to stimulate PBLs. On day 9, IL-2 (120 U/mL) (Novartis, Basel, Switzerland) and IL-7 (40 U/ml) (PeproTech, Rocky Hill, N.J., USA) was added. On day 14, we thawed the fastDC that had been frozen on day 2, and used these cells to stimulate the PBL. On day 16 and day 24 we added, IL-2 and IL-7 in the concentrations mentioned above.
At day 38 of the T-cell culture, we stimulated the T-cells with CALRLong1 peptide for 4 h and next isolated IFN-γ secreting cells using the MACS IFN-γ secretion assay. The isolated cells were expanded using a rapid expansion protocol. The vast majority of cells that reacted to CALRLong1 peptide stimulation were CD4^+ T-cells; thus, we isolated CD4^+ T cells from the REP culture using the EasySep Human CD4 isolation Kit (StemCell Technologies, Inc., Vancouver, BC, Canada). The enriched CD4^+ T-cells were then cloned by limiting dilution, and growing T-cell clones were rapidly expanded using feeder cells and high dose IL-2 (6000 u/ml). T-cell receptor clonotyping of the cloned cells was performed by denaturing gradient gel electrophoresis as previously described.
Frozen T-cells were thawed one day prior to assaying, and in experiments examining CD107a expression, a CD107a-PE antibody was added to cells directly after addition of peptide or target cells. After one hour of stimulation, protein-transport inhibitor Brefeldin A (BD Biosciences, San Jose, Calif., USA) was added to the cells which were then stimulated for four h. Cells were stained with CD3-APC-H7, CD4-FITC, CD8-PerCP, IFN-γ-APC, TNF-α-BV421 and Fixable Viability Stain 510 (BD Biosciences, San Jose, Calif., USA), permeabilized and washed with Permeabilization Reagent/Diluent and fixation-permeabilization buffer (AH Diagnostics, Aarhus, Denmark). Cells were acquired with a FACS Canto II (BD Biosciences) and analyzed using FACSDiva software. All effector cell stimulations were run in triplicate wells if not otherwise specified.

[3] = tested on: PBMCs from the CALRmut donor; assay: Spontaneous ex-vivo ELISPOT, 48 hour assay; details: high background, rules of Moodie et al.
Method: We established a CALRLong1-specific T-cell culture from a CALRmut patient with a strong […] T-cell response against CALRLong1 peptide. PBL were stimulated three times with autologous dendritic cells, and T-cells were analyzed using intracellular cytokine staining (ICS). […] However, CD4^+ T cells responded to CALRLong1 (FIG. 7). […] Since CALRLong4 peptide comprises the shared 36 amino acid C-terminus found in all CALRmut patients, we tested PBMCs from the donor for a spontaneous ex-vivo ELISPOT response in a 48 hour assay.

[4] = tested on: PBMC from CALR-mutated MPN patients; assay: IFN-γ ELISPOT for spontaneous T-cell responses in PBMC from CALR-mutated MPN patients
Text: The study was approved by the local ethics committee, and all patients signed informed consent, in accordance with the Helsinki Declaration before study participation. We included 31 CALRmut MPN patients with the following diagnoses: ET (n=13), PMF (n=12), post-ET MF (n=4), or prefibrotic MF (n=2). Peripheral blood mononuclear cells (PBMC) were isolated with Lymphoprep and frozen in fetal calf serum with 10% dimethyl sulfoxide. First, we scrutinized PBMC from two MPN patients for the presence of spontaneous T-cell responses against two CALR derived peptides, CALR Long1 ([…], SEQ ID NO: 2) and CALR Long2 ([…], SEQ ID NO: 3) using the highly sensitive and solid interferon gamma (IFN-γ) Enzyme-Linked ImmunoSPOT (ELISPOT) secretion assays (FIGS. 1A and 1C). The ELISPOT has proven to be the central assay in studies focusing on identification on novel tumor antigens by the characterization of novel tumor antigen responses in PBMC from cancer patients. Thus, this assay has previously been utilized for the identification of novel tumor antigens based on spontaneous immunity in cancer patients (Andersen et al., 2005).
as §1
After the promising responses in the first two patients we analyzed PBMC from additional 29 CALR-mutated MPN patients. […] Of the 24 evaluable patients, 10 had ET and 14 had MF; the latter group comprised 11 patients with PMF, 2 with post-ET MF, and 1 with prefibrotic MF. […] Furthermore, we examined PBMC from two patients in a tumor necrosis factor alpha (TNF-α) ELISPOT.

[5] = tested on: PBMC / T-cells from CALRmut MPN patients; assay: Intracellular cytokine staining of patient PBMC and of DC-stimulated T-cell culture; details: PBMC from patient C39
Text: Next, we chose to analyze PBMC from four patients with a response against CALR Long1 and CALR Long2 peptides using intracellular cytokine staining. Although this method is less sensitive than ELISPOT, it allows elucidating which immune cells secrete the cytokine identified in ELISPOT. Hereby, we could determine whether the reacting cells were T-cells and, if so, if the responding cells were CD4 T-cells or CD8 T-cells. In short, cells were stimulated with CALR Long1 or with a scrambled peptide ([…]) as control. For surface markers we employed 4 μl NIR, 10 μl CD4 PerCP, 2 μl CD8 Pacific Blue, and 10 μl CD3 FITC and for intracellular staining we used 2 μl anti-TNF-α and anti IFN-γ antibodies conjugated with either PE-Cy7 or APC. Washing, permeabilization and staining procedures followed previously described methods (Munir, Andersen et al., 2013). […] To confirm that the responses identified indeed were T-cell responses against CALR Long1, we generated dendritic cells from patient C42 using previously described methods. Autologous PBMC were stimulated three times with the dendritic cells, which had been pulsed with CALR Long1, and we hereby generated a CALR Long1 specific T-cell culture. […] The frequent detection of T-cell responses indicate, that the CALR mutations encode highly immunogenic cancer antigens, which represent ideal targets for anti-cancer immune therapy.

[6] = tested on: PBMC from healthy donors; assay: TNF-α ELISPOT on PBMC from healthy donors; details: ten healthy controls analyzed per peptide
Text: Of note, all patients with a TNF-α response against CALRLong1 and CALRLong2 did also display an IFN-g response in ELISPOT (FIGS. 14-15).

Sequence | immune responses of healthy donors in IFN-γ ELISPOT [1] | healthy donors with a significant response in IFN-γ ELISPOT [1] | healthy donors with a significant response in IFN-γ ELISPOT, percentage [1] [%] | response of CD4^+ T cells of the CALRLong1 bulk culture to peptide stimulation [2] | spontaneous ex-vivo ELISPOT response [3] | patients that responded in IFN-γ ELISPOT, percentage ([4]; 18 evaluable patients for CALR Long1, 24 for CALR Long2) [%] | patients that responded in IFN-γ ELISPOT ([4]; 18 evaluable patients for CALR Long1, 24 for CALR Long2, p-value ≤0.05 deemed a T-cell response) [patients] | response confirmed in additional ELISPOT ([4]; samples from 5 of the responding patients retested) [patients] | type of T-cell response, intracellular cytokine staining [5] | healthy controls with a significant TNF-α response [6]
RRMRRTRRKMRRKMSPARPRTSCREACLQGWTEA (listed as Homo sapiens) [CALRLong4] | strong immune responses | 9 | 100 | reacted | significant response | – | – | – | – | –
TRRKMRRKMSPARPRTSCREACLQGWTEA (listed as Homo sapiens) [CALRLong2] | strong immune responses | 18 | 78 | did not respond | – | 42 | 10 | 4 | CD4 T-cell response | Five
